The values that follow come from BindingDB's records for aid1799745 (Csar, 2012).

The structures appear in SMILES notation. A value given as a limit tells only on which side of the number the result lay.

For the assay, the target named is T1, UDP-3-O-acyl-N-acetylglucosamine deacetylase (Aquifex aeolicus (strain VF5), UniProt O67648).
T1 sequence (O67648 whole entry): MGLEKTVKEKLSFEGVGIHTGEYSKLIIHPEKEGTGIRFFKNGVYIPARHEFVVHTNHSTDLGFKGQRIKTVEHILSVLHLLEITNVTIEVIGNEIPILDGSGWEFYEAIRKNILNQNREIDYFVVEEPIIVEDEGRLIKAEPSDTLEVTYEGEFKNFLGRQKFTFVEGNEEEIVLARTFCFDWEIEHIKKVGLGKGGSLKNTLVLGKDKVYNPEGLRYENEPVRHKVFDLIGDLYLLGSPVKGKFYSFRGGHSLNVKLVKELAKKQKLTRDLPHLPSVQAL
Nature of the assay: Thermofluor. The note with it: pH 7; 25 °C.
Usually Kd stands for the free concentration of one partner at which half of the binding sites on the other are occupied at equilibrium, for simple one-to-one binding. Read a low Kd as tighter binding. Compound `O=C(NO)[C@H]1COC(c2cc3cc(F)ccc3[nH]2)=N1` [CS272] gave a Kd of 2.5 µM.

The compound `CC1(CNC(=O)c2ccc(C#Cc3ccccc3)cc2)NC(=O)NC1=O` (stereo unspecified) [CS22] had a Kd of 93.4 µM.

Turning to `C[C@@H](O)[C@H](NC(=O)c1ccc(C#CC#Cc2ccccc2)cc1)C(=O)NO` [CS257], the dissociation constant (Kd) worked out at 0.008 µM.

`C[C@@H](O)[C@H](NC(=O)c1ccc(C#Cc2ccccc2)cc1)C(=O)NO` [CS259]: the affinity, expressed as Kd, was 0.02 µM.

The compound `O=C(NO)[C@H]1COC(c2ccc(OC(F)(F)F)c(Cl)c2)=N1` [CS270] showed a Kd of 3.8 µM.

In the case of `CC1(CNC(=O)c2ccc(-c3ccccc3)cc2)NC(=O)NC1=O` (stereo unspecified) [CS21], the Kd was more than 100 µM.

With `C[C@@H](O)[C@H](NC(=O)c1ccc(C#CC#Cc2ccccc2)cc1)C(=O)NCC1(C)NC(=O)NC1=O` (stereo partly specified) [CS255], the Kd was more than 100 µM.

Consider `NC[C@H](NC(=O)c1ccc(-c2ccc(Br)cc2)cc1)C(=O)NO` [CS250], for which the affinity, expressed as Kd, was 0.19 µM. This lies in the sub-micromolar range.

For the compound `O=C(NO)C1=C[SiH2]C(c2ccc(F)cc2)=N1` (stereo unspecified) [CS276], the Kd was found to be 28.5 µM.

Turning to `C[C@@H](O)[C@H](NC(=O)c1ccc(C#Cc2ccccc2)cc1)C(=O)NCC1(C)NC(=O)NC1=O` (stereo partly specified) [CS254], the Kd is more than 100 µM.

With `NC[C@H](NC(=O)c1ccc(C#CC#Cc2ccccc2)cc1)C(=O)NO` [CS252], binding was characterised by a dissociation constant (Kd) of 0.059 µM.

Turning to `C[C@@H](O)[C@H](NC(=O)c1ccc(-c2ccccc2)cc1)C(=O)NCC1(C)NC(=O)NC1=O` (stereo partly specified) [CS253], the Kd was more than 100 µM.

Take `O=C(NO)[C@H]1COC(c2ccc([N+](=O)[O-])cc2)=N1` [CS268]: binding was characterised by a dissociation constant (Kd) of 7.25 µM.

In turn, `O=C(NO)[C@H]1COC(c2ccc(OCc3cccc(F)c3)c(OC(F)(F)F)c2)=N1` [CS269] showed a dissociation constant Kd of more than 100 µM.

In the case of `O=C(NO)c1csc(-c2ccc(OC(F)(F)F)c(Cl)c2)n1` [CS275], the Kd was found to be 21.5 µM.

In the case of `C[C@@H](O)[C@H](NC(=O)c1ccc(-c2ccc(Br)cc2)cc1)C(=O)NCC1(C)NC(=O)NC1=O` (stereo partly specified) [CS256], the Kd was more than 100 µM.

`CC1(CNC(=O)[C@H](CN)NC(=O)c2ccc(-c3ccccc3)cc2)NC(=O)NC1=O` (stereo partly specified) [CS264] gave a Kd of more than 100 µM.

In turn, `C[C@@H](O)[C@H](NC(=O)c1ccc(-c2ccccc2)cc1)C(=O)NO` [CS263] yielded a Kd of 0.075 µM.

For `CC1(CNC(=O)[C@H](CN)NC(=O)c2ccc(-c3ccc(Br)cc3)cc2)NC(=O)NC1=O` (stereo partly specified) [CS267], the Kd was more than 100 µM.

The compound `CN(C)c1ccc(-c2nc(C(=O)NO)cs2)cc1` [CS278] came in with a Kd of 28.2 µM.

For the compound `CC1(CNC(=O)c2ccc(-c3ccc(Br)cc3)cc2)NC(=O)NC1=O` (stereo unspecified) [CS23], the dissociation constant Kd was more than 100 µM.

Compound `CCCc1ccc(-c2ccc(C3=N[C@@H](C(=O)NO)CO3)cc2)cc1` [CS274] displayed a Kd of 15.6 µM.

`CC1(CNC(=O)[C@H](CN)NC(=O)c2ccc(C#CC#Cc3ccccc3)cc2)NC(=O)NC1=O` (stereo partly specified) [CS265] had a Kd of more than 100 µM.

In turn, `NC[C@H](NC(=O)c1ccc(-c2ccccc2)cc1)C(=O)NO` [CS249] displayed a Kd of 0.393 µM.

`O=C(NO)c1csc(-c2ccc(F)c(C(F)(F)F)c2)n1` [CS277]: binding was put at a Kd of 2.91 µM.

In the case of `C[C@@H](O)[C@H](NC(=O)c1ccc(-c2ccc(Br)cc2)cc1)C(=O)NO` [CS258], the Kd was found to be 0.033 µM.

`O=C(NO)[C@H]1COC(c2ccc(F)cc2)=N1` [CS279]: binding was characterised by a dissociation constant (Kd) of 11.1 µM.

`CC1(CNC(=O)c2ccc(C#CC#Cc3ccccc3)cc2)NC(=O)NC1=O` (stereo unspecified) [CS243] came in with a Kd of 63.9 µM.

As to `O=C(NO)[C@H]1COC(c2ccc(F)c(C(F)(F)F)c2)=N1` [CS271], binding was characterised by a dissociation constant (Kd) of 1.03 µM.

`CC1(CNC(=O)[C@H](CN)NC(=O)c2ccc(C#Cc3ccccc3)cc2)NC(=O)NC1=O` (stereo partly specified) [CS266] came in with a Kd of more than 100 µM.

In the case of `CN(C)c1ccc(C2=N[C@@H](C(=O)NO)CO2)cc1` [CS273], the Kd is more than 100 µM.
